Assays:
[1] = CBD trough plasma concentration in clinical trials CBD-CT1 and CBD-PT (LC-MS/MS); assay type: in vivo, patients; conditions: for concentration at 7 day: Day 7, mean ± SD; for concentration at 14 day: Day 14, mean ± SD
Protocol: CBD was administered as an oral dose in a capsule formulation. The dose was increased during the first week from 200 mg/d to 800 mg/d (4×200 mg) and remained at this level for the rest of the study period. Due to serious unwanted effects, the dose could be reduced irreversibly to 600 mg/d starting with day 15. […] Dose applications, blood sampling, and assessment of PANSS followed the time schedule presented below. Additional treatment with 7.5 mg lorazepam per day during the whole study period was permitted. […]
Eighteen patients with a diagnosis of schizophrenia or schizophreniform disorder should be included in this trial per protocol. Because dropouts had to be replaced by a new patient a total number of 29 patients was randomized from February 2006 to June 2008. All randomized patients complied with all inclusion and exclusion criteria: age between 18 and 65, male and female, specific DSM-IV diagnoses, initial BPRS score≥36, no pregnancy or lactation phase, reliable contraception, no lack of accountability, no other relevant interferences, no treatment with depot-antipsychotics during the last three months, no severe internal or neurological illness, no QTc prolongation, no acute suicidality nor endangerment of others by the patient. […] Treatment lasted four weeks: the first period with two weeks of CBD or placebo treatment was followed by a second period with a two-week treatment of placebo or CBD, respectively. There was no washout period between the two treatments. […] The dose could be reduced irreversibly to 400 mg/d in case of serious unwanted effects. […] The PANSS was applied at baseline and day 14 and 28. Dose applications, blood sampling, and assessment of PANSS followed the time schedule presented below. Additional treatment with 5.0 mg lorazepam per day during the whole study period was permitted. […]
Therefore, documentation of time points when CBD was administered and when blood samples were taken was limited and not included in the electronic data. Information on possible dose reductions e.g. due to adverse events were missing in the electronic data, too. In cooperation with the PI, time points were inputted based on standard routines on the ward: application of study medication was set to 9:00 AM, 12:30 PM, 6:30 PM, and 10:00 PM, and blood sampling was scheduled at 8:45 AM. Assessment of the PANSS was also timed to 8:45 AM. The loss of accuracy by standardizing times was considered acceptable because the time interval between doses and blood sampling is long, so small deviations would have no major impact. Information on actually applied doses or reduced doses was updated in cooperation with a member of the PI's research group. Based on notes in archived patient's case report files and other paper-based documents the electronic data was adjusted.
After consultation with the PI, these values were replaced with 0 because all patients with positive drug screening were excluded from the clinical trial according to the study protocol. Baseline values>0 may result from errors in procedure e.g. when blood samples were taken after dose application. Therefore, the replacement is considered as being equivalent to an imputation of a predose measurement which was not conducted.

[2] = system: patients with schizophrenia; assay: Estimated correlation between CBD plasma concentration and percentage change of PANSS score at day 14; assay type: in vivo; conditions: for Estimated CBD plasma concentration, PANSS_N, average / Estimated CBD plasma concentration, PANSS_P, average / Estimated CBD plasma concentration, PANSS_T, average / Estimated CBD plasma concentration, PANSS_G, average: two weeks after commencement
Excerpt: In general, it is expected that a percentage change of 50% of the PANSS score(s) vis-à-vis the baseline score after four to six weeks of treatment indicates a significant improvement of the PANSS score(s) (see Correll C. U., “Quantifying clinical relevance in the treatment of schizophrenia, Clinical Therapeutics”, Vol. 33, Number 12, 2011, B16-B39).
Since the PANSS score(s) cover symptoms experienced or observed during the preceding 7 days, the minimum required observation period is one week. To avoid an overlap to the observation of initial symptoms, a treatment period of 2 weeks is considered a minimum reliable period. Therefore, we analyzed the treatment effect after 2 weeks of treatment. Due to the analyzed shortened treatment period a percentage change of 25% of the PANSS score(s) vis-à-vis the baseline score indicates a significant improvement of the PANSS score(s).

[3] = both sexes, human, plasma, oral capsule 600 mg/d, cross-over with placebo

## C=C(C)[C@@H]1CCC(C)=C[C@H]1c1c(O)cc(CCCCC)cc1O [CBD, cannabidiol]
[1]; Day 21, mean ± SD, cross-over, 0 PT patients under CBD treatment per table
  CBD plasma concentration, CBD-PT: 4.0 ± 1.2 µg/L
[1]; both sexes, human, plasma, oral, 600 mg/d
  concentration at 28 day: 2.3 ± 1 ng/mL
[1]; both sexes, human, plasma, oral, 600 mg/d, CBD-CT1 + CBD-PT pooled (only PT measured)
  concentration at 7 day: 14.1 ± 9.1 ng/mL
[1]; both sexes, human, plasma, oral, 600 mg/d, Day 21, mean ± SD, pooled (only PT measured)
  concentration at 21 day: 4 ± 1.2 ng/mL
[1]; [3]
  concentration at 7 day: 14.1 ± 9.1 ng/mL
  concentration at 14 day: 19.3 ± 8.7 ng/mL
[1]; human, plasma, oral, CBD-CT1 + CBD-PT pooled
  concentration at 14 day: 35.4 ± 22.6 ng/mL
[1]; human, plasma, oral, Day 28, mean ± SD, CBD-CT1 + CBD-PT pooled
  concentration at 28 day: 29.2 ± 27.8 ng/mL
[1]; human, plasma, oral capsule 800 mg/d (titrated from 200 mg/d in first week), trough
  concentration at 14 day: 50.5 ± 21.2 ng/mL
[1]; human, plasma, Day 28, mean ± SD, oral capsule 800 mg/d, trough
  concentration at 28 day: 42.6 ± 24.7 ng/mL
[2]; PANSS delta 10% vs baseline, range (12.9; 28.9)
  Estimated CBD plasma concentration, PANSS_N, average: 17.8 µg/L
[2]; PANSS delta 10% vs baseline, range (13.0; 35.7)
  Estimated CBD plasma concentration, PANSS_P, average: 19.1 µg/L
[2]; PANSS delta 10% vs baseline, range (13.4; 25.5)
  Estimated CBD plasma concentration, PANSS_T, average: 17.5 µg/L
[2]; PANSS delta 20% vs baseline, range (25.7; 57.7)
  Estimated CBD plasma concentration, PANSS_N, average: 35.6 µg/L
[2]; PANSS delta 20% vs baseline, range (26.0; 71.4)
  Estimated CBD plasma concentration, PANSS_P, average: 38.2 µg/L
[2]; PANSS delta 20% vs baseline, range (26.6; 49.2)
  Estimated CBD plasma concentration, PANSS_G, average: 34.5 µg/L
[2]; PANSS delta 20% vs baseline, range (26.7; 50.9)
  Estimated CBD plasma concentration, PANSS_T, average: 35.0 µg/L
[2]; PANSS delta 25% vs baseline, range (32.2; 72.1)
  Estimated CBD plasma concentration, PANSS_N, average: 44.5 µg/L
[2]; PANSS delta 25% vs baseline, range (32.5; 89.3)
  Estimated CBD plasma concentration, PANSS_P, average: 47.7 µg/L
[2]; PANSS delta 25% vs baseline, range (33.2; 61.5)
  Estimated CBD plasma concentration, PANSS_G, average: 43.1 µg/L
[2]; PANSS delta 25% vs baseline, range (33.4; 63.7)
  Estimated CBD plasma concentration, PANSS_T, average: 43.8 µg/L
[2]; PANSS delta 30% vs baseline, range (38.6; 86.6)
  Estimated CBD plasma concentration, PANSS_N, average: 53.4 µg/L
[2]; PANSS delta 30% vs baseline, range (39.1; 107.1)
  Estimated CBD plasma concentration, PANSS_P, average: 57.2 µg/L
[2]; PANSS delta 30% vs baseline, range (39.8; 73.8)
  Estimated CBD plasma concentration, PANSS_G, average: 51.8 µg/L
[2]; PANSS delta 30% vs baseline, range (40.1; 76.4)
  Estimated CBD plasma concentration, PANSS_T, average: 52.6 µg/L
[2]; PANSS delta 40% vs baseline, range (51.5; 115.4)
  Estimated CBD plasma concentration, PANSS_N, average: 71.2 µg/L
[2]; PANSS delta 40% vs baseline, range (52.1; 142.8)
  Estimated CBD plasma concentration, PANSS_P, average: 76.3 µg/L
[2]; PANSS delta 40% vs baseline, range (53.1; 98.4)
  Estimated CBD plasma concentration, PANSS_G, average: 69.0 µg/L
[2]; PANSS delta 40% vs baseline, range (53.4; 101.9)
  Estimated CBD plasma concentration, PANSS_T, average: 70.1 µg/L
[2]; PANSS delta 50% vs baseline, range (64.3; 144.3)
  Estimated CBD plasma concentration, PANSS_N, average: 89.0 µg/L
[2]; PANSS delta 50% vs baseline, range (65.1; 178.5)
  Estimated CBD plasma concentration, PANSS_P, average: 95.4 µg/L
[2]; PANSS delta 50% vs baseline, range (66.4; 123.0)
  Estimated CBD plasma concentration, PANSS_G, average: 86.3 µg/L
[2]; PANSS delta 50% vs baseline, range (66.8; 127.3)
  Estimated CBD plasma concentration, PANSS_T, average: 87.6 µg/L
[2]; PANSS delta 60% vs baseline, range (78.1; 214.2)
  Estimated CBD plasma concentration, PANSS_P, average: 114.5 µg/L
[2]; PANSS delta 60% vs baseline, range (79.7; 147.6)
  Estimated CBD plasma concentration, PANSS_G, average: 103.5 µg/L
[2]; PANSS delta 60% vs baseline, range (80.1; 152.8)
  Estimated CBD plasma concentration, PANSS_T, average: 105.1 µg/L
[2]; PANSS delta 70% vs baseline, range (90.1; 202.0)
  Estimated CBD plasma concentration, PANSS_N, average: 124.6 µg/L
[2]; PANSS delta 70% vs baseline, range (91.1; 249.9)
  Estimated CBD plasma concentration, PANSS_P, average: 133.6 µg/L
[2]; PANSS delta 70% vs baseline, range (93.0; 172.2)
  Estimated CBD plasma concentration, PANSS_G, average: 120.8 µg/L
[2]; PANSS delta 70% vs baseline, range (93.5; 178.3)
  Estimated CBD plasma concentration, PANSS_T, average: 122.6 µg/L
[2]; PANSS delta 75% vs baseline, range (96.5; 216.4)
  Estimated CBD plasma concentration, PANSS_N, average: 133.5 µg/L
[2]; PANSS delta 75% vs baseline, range (97.6; 267.8)
  Estimated CBD plasma concentration, PANSS_P, average: 143.1 µg/L
[2]; PANSS delta 75% vs baseline, range (99.6; 184.5)
  Estimated CBD plasma concentration, PANSS_G, average: 129.4 µg/L
[2]; PANSS delta 75% vs baseline, range (100.1; 191.0)
  Estimated CBD plasma concentration, PANSS_T, average: 131.4 µg/L
[2]; PANSS delta 80% vs baseline, range (102.9; 230.8)
  Estimated CBD plasma concentration, PANSS_N, average: 142.4 µg/L
[2]; PANSS delta 80% vs baseline, range (104.1; 285.6)
  Estimated CBD plasma concentration, PANSS_P, average: 152.6 µg/L
[2]; PANSS delta 80% vs baseline, range (106.3; 196.8)
  Estimated CBD plasma concentration, PANSS_G, average: 138.0 µg/L
[2]; PANSS delta 80% vs baseline, range ([…]; 203.7)
  Estimated CBD plasma concentration, PANSS_T, average: 140.2 µg/L
[2]; PANSS delta 90% vs baseline, range (115.8; 259.7)
  Estimated CBD plasma concentration, PANSS_N, average: 160.2 µg/L
[2]; PANSS delta 90% vs baseline, range (117.2; 321.3)
  Estimated CBD plasma concentration, PANSS_P, average: 171.7 µg/L
[2]; PANSS delta 90% vs baseline, range (119.5; 221.4)
  Estimated CBD plasma concentration, PANSS_G, average: 155.3 µg/L
[2]; PANSS delta 90% vs baseline, range (120.2; 229.2)
  Estimated CBD plasma concentration, PANSS_T, average: 157.7 µg/L
[2]; PANSS delta 100% vs baseline, range (128.7; 288.5)
  Estimated CBD plasma concentration, PANSS_N, average: 178.0 µg/L
[2]; PANSS delta 100% vs baseline, range (130.2; 357.0)
  Estimated CBD plasma concentration, PANSS_P, average: 190.8 µg/L
[2]; PANSS delta 100% vs baseline, range (132.8; 246.0)
  Estimated CBD plasma concentration, PANSS_G, average: 172.5 µg/L
[2]; PANSS delta 100% vs baseline, range (133.5; 254.6)
  Estimated CBD plasma concentration, PANSS_T, average: 175.2 µg/L
[2]; after 2 weeks of treatment
  CBD plasma concentration that results in the required percentage change (25%) of the PANSS score(s): at least 25 μg/l

— patent US20240192237A1 (curantis UG, priority 2021, published 2024)
